The results in this text go back to ChEMBL document CHEMBL5726941, “Naphthyridine compounds, medical combinations and use thereof” (2018).

In the assay the target is Hepatocyte growth factor receptor (Homo sapiens, UniProt P08581). The assay is described as follows: Inhibition Assay: A study on inhibition of protein kinases activity at in vitro biochemical levelMaterial and method: kinases such as c-Met, VEGFR-2, Axl and RET, obtained from Invitrogen; HTRF KinEASE; TK kit (Cisbio Company); 384-well plate (Greiner Company); ATP (Sigma Company), MgCl2 (Sigma Company); PHERAstar FS multifunctional plate reader (BMG Company); conventional centrifuge (StaiteXiangyi Company); incubator (Binder Company). […] Meanwhile, 4 μL 1.33× enzymatic buffer is added as the negative control. 2 μL compound working solution is added into each well, and 2 μL 8% DMSO in water is added as zero compound level control (i.e., positive control). At 25° C. (or 30 C), incubate for 5-10 min; add 2 μL substrate working solution into each well to initiate the enzymatic reaction. Allow to react while shaking at 25° C. (or 30° C.) for 15-60 min. In general terms: In TR-FRET formats the signal depends on donor and acceptor labels being close together.
Sequence of Hepatocyte growth factor receptor (P08581 whole entry): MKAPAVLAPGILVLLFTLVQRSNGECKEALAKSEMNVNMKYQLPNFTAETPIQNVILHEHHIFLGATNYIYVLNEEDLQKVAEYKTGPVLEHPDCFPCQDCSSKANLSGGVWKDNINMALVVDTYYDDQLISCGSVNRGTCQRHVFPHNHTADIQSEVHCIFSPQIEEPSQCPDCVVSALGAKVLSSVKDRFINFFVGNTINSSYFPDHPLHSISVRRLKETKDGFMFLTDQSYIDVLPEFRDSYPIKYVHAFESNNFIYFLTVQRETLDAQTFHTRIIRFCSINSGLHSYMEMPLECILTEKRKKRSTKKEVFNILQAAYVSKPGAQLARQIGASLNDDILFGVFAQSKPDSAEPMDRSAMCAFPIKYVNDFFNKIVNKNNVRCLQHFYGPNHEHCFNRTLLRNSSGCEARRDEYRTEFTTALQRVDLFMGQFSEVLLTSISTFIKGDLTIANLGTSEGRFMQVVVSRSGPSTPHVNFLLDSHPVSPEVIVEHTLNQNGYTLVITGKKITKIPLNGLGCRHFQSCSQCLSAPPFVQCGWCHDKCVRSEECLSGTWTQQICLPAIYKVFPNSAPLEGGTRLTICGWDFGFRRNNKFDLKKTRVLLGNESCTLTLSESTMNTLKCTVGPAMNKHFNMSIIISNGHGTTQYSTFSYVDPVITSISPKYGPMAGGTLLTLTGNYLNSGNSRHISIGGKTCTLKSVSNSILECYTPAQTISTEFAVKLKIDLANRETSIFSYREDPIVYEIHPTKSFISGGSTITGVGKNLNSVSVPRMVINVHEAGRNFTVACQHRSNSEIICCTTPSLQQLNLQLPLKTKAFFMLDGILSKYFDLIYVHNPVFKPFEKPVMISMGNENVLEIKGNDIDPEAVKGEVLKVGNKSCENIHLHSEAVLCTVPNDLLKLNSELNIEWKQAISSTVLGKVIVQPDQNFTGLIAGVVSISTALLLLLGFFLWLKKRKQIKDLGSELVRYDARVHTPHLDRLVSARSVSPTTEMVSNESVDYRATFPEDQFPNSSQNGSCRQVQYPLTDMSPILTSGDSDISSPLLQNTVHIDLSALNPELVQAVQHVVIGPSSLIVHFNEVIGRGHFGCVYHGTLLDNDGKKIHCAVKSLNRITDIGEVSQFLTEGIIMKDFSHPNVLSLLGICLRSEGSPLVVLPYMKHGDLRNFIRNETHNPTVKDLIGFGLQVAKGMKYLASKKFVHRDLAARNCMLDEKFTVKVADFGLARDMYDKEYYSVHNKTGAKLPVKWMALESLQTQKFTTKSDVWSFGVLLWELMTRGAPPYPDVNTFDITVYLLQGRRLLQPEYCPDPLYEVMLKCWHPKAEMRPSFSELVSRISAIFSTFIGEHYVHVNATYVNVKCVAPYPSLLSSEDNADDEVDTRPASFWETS

In turn, `COc1cc2nccc(Oc3ccc(Nc4nccc5[nH]cc(-c6ccc(F)cc6)c(=O)c45)cc3F)c2cc1OC` had an IC50 of 143 nM.

In general, IC50 refers to the concentration that gives 50% inhibition. High values mean weaker potency in that assay, low ones greater potency in that assay.
